Each structure is given as a SMILES string.

Our source for the IC50 values is ChEMBL document CHEMBL1136972, “Repenins A-D, four new antioxidative coumarinolignoids from Duranta repens Linn” (Bioorg Med Chem Lett, 2009).

The assay relates to Radical scavenging activity. As to the kind of experiment: Antioxidant activity assessed as DPPH free radical scavenging activity. Format: functional. A general note: The DPPH test is a chemical assay of radical scavenging.
The term IC50 denotes the concentration that inhibits the measured activity by half. `COc1cc(/C=C/C(=O)OC[C@H]2Oc3c(c(OC)cc4ccc(=O)oc34)O[C@@H]2c2ccc(O)c(OC)c2)ccc1O` [REPENIN B]: the concentration for half-maximal inhibition (IC50) came out at 420 µM.

`COc1cc([C@H]2Oc3c(OC)cc4ccc(=O)oc4c3O[C@@H]2COC(C)=O)ccc1O` [DURANTIN A]: the IC50 worked out at 625 µM.

For `COc1cc([C@H]2Oc3c(OC)cc4ccc(=O)oc4c3O[C@@H]2CO)ccc1O` [CLEOMISCOSIN A], the IC50 was determined as 612 µM.

Turning to `COc1cc([C@H]2Oc3c(OC)cc4ccc(=O)oc4c3O[C@@H]2COC(=O)/C=C/c2ccc(O)c(O)c2)ccc1O` [REPENIN C], the IC50 was found to be 450 µM.

In the case of `COc1cc([C@H]2Oc3c(OC)cc4ccc(=O)oc4c3O[C@@H]2COC(=O)/C=C/c2ccc(O)cc2)ccc1O` [REPENIN A], the IC50 is 530 µM.

On to `COc1cc([C@H]2Oc3c(OC)cc4ccc(=O)oc4c3O[C@@H]2COC(=O)c2ccc(O)c(O)c2)cc(OC)c1O` [REPENIN D], for which the IC50 came out at 510 µM.

Take `COc1ccc(O)c(C(C)(C)C)c1.COc1ccc(O)cc1C(C)(C)C` [BUTYLATED HYDROXYANISOLE]: the 50% inhibitory concentration (IC50) was 43 µM.
